According to US10174005B2, “Fused pyrimidines as inhibitors of p97 complex” (Cleave Biosciences, Inc., priority 2014, dated 2019):
Like-named read-outs stand apart in the source and are kept apart here.

Legend:
[1] = system: K48-Ub (lysine-48 chain linkage of poly-ubiquitin) in A549 cells; assay: A549 K48-Ub accumulation, immunofluorescence high-content imaging; assay type: cell-based; conditions: Homo sapiens, 6 hr incubation
Description: Image-analysis is used to generate quantitative data from these assays that can be fit to a four-parameter sigmoid curve to derive IC50 values. Substrates of the ubiquitin-proteasome system, such as p53, are monitored after tumor cell lines are incubated with compounds for several hours. Accumulation of these proteins indicates an inhibition of proteasome-mediated degradation. Accumulation of lysine-48 chain linkage of poly-ubiquitin is also monitored by immunofluorescence as an indicator of ubiquitin-proteasome system inhibition. Both LC3 and SQSTM1 are mediators of autophagy. The localization and amounts of these proteins are monitored by immunofluorescence and report on the activity and inhibition of autophagy in response to p97 inhibition.
(§1) Cell Plating: • Seed cells ˜16 hrs prior to compound treatment • Plate 25 μL of A549 cells in every well of 384-well plate using multidrop. • Two (2) black plates for IF at 2500 cells/well • Let plate sit at room temp for 10-15 minutes prior to putting in incubator to • allow cells to stick in middle of plate. • One (1) white plate for viability at 500 cells/well.
(§2) Day 2 Treatment of Cultured Cells with Test Compounds • Treat Cells: • Serial dilute compounds with a 10 point 2-fold serial dilution in DMSO to make 250× stock compound solution • Dilute compounds 1:125 in cell culture media to make a 2× solution Add • 25 μl of dilution compounds to cell plates in well duplicates Put cells back in incubator (6 hr incubation for black plates, 72 hr incubation for white plates).
Fix/Stain Black Plates: • Incubate cells in black plates with compound at 37 deg C. for 6 hrs. add 15 μL of 16% Paraformaldehyde (PFA) directly into media of each well, incubate at room temp for 5 min, flick plate and wash in 50 μL of PBS block in 50 μL of Blocking Buffer for 30 minutes (can go up to several hours) • Blocking buffer: 1×PBS, 1% BSA, 0.3% Triton-X 100, Hoechst (1:10,000) incubate in 25 μL of primary antibody in blocking buffer at 4 deg C. over night
Secondary Antibodies: • AlexaFluor488 Goat anti-Rabbit 1:2,000 (Life Tech A11008) • AlexaFluor555 Goat anti-Mouse 1:2.000 (Life Tech A21422)
Day 3/4 • Black Plate Staining (cont): • wash black plates 3× in 50 μL PBS (˜5 min each) incubate in 25 μl of secondary antibody (1:2,000) in blocking buffer for 1-2 hrs at room temp (alexafluor488-anti-Rabbit/alexafluor555-anti-Mouse) • wash 4× in 50 μL PBS (˜5 min each) • leave plates in PBS for imaging • clean bottom of plates with 70% EtOH
Imaging: • Image plates in high content microscope with 405 nm, 488 nm and 555 nm filters
Data Analysis: • Nuclear counts and cellular intensities of each markers are measured using Hoechst as a nuclear marker with an automated image analysis protocol using Matlab software (Math Works)

[2] = target: p97 (Homo sapiens, UniProt P55072); assay: P97 ATPase biochemical assay (ADP Glo); conditions: 20 nM p97, 20 μM ATP, 37° C. for 15 minutes
Description: The ATPase assay is performed according the following protocol: Purified enzyme (20 nM p97), substrate (20 μM ATP) and a dose titration of compounds are mixed in buffer (50 mM TRIS pH 7.5, 20 mM MgCl2, 0.02% TX-100, 1 mM DTT, 0.2% (v/v) glycerol) and incubated at 37° C. for 15 minutes. The reaction is terminated and the level of product generated is measured using the ADP Glo Assay Kit (Promega, Madison Wis.). Plotting product generated versus compound concentration and using a four-parameter fit model generates an IC50 value for each compounds.
The p97 assay is an initial screening assay used to determine inhibitory activity of the fused pyrimidine compounds of the invention against the p97 complex. As discussed above, inhibition of activity of the p97 proteosome complex can enable apoptosis and cause elimination of neoplastic cells (cancer cells). The method follows that of Christianson in Nat. Cell Biol., (2011) 14:93.
Assay Buffer is a mixture of 50 mM TRIS pH 7.5, 20 mM MgCl2, 0.02% TX-100, 1 mM DTT and 0.2% (v/v) Glycerol. The well plate is Platetype: Corning 3674, 384w plate. The identification kit is an ADP glo kit (Promega): stop buffer, detection reagent.
Serial dilute compound in DMSO in a 1:3.33-fold 10 point serial dilution.
in each well of 384w plate add the following reagents:
0.5 μL compound serial diluted in DMSO (Final Conc. 10%)
2 μL ATP (Final Conc.=20 uM, diluted in assay buffer)
2.5 μL p97 (Final Conc.=20 nM, diluted in assay buffer)
Incubate at 37 deg C. for 15 min.
Add 5 μL of stop buffer, incubate at RT for 40 min.
Add 10 μL of detection reagent, incubate at RT for 30 min.
Read luminescence on Envision plate reader.
Upon obtaining the data from the luminescence reading, the data may be analyzed as follows:
Normalize luminescence data using no enzyme (full inhibition) and no compound (no inhibition) controls. Plot normalized luminescence data against log-transformed concentration values and fit to a sigmoidal curve to determine IC50 values (done in Collaborative Drug Discovery software).

[3] = system: A549 cells; assay: Cultured cancer cell viability assay (cell titer glo, CTG) in A549 cells; assay type: cell-based; conditions: Homo sapiens, read-out: A549 CTG IC50
Description: Anti-tumor effects are monitored in cultured cancer cells after several days of compound treatment. The cell titer glo assay (Promega) measures the amount of ATP present as a proxy for cellular viability. Cellular counting is done using high-content microscopy followed by image analysis. A hanging drop 3D-culture system (3D Biomatrix) is used followed by cell titer glo to measure growth in a tumor-like environment.
The cellular assay provides information about the anti-neoplastic activity of the compounds of the invention. The compounds are tested against cultured cancer cells to determine whether or not the compounds of the invention are capable of intersecting with cancer cells to minimize or eliminate such cells. The assay involves establishing colonies of such cells and then treating them with the test compound under specified conditions and analysis regima to determine results.
as §1, §2
Viability Assay: • Thaw an aliquot of frozen cell titer glo (Promega G7572) at room temperature. • Add 45 mL of NaCl/PBS solution to 5 ml of cell titer glo (10×). • Remove white plates from incubator, leave at room temp for 30 minutes. • Add 25 μl of diluted cell titer glo to each well. • Shake plate for >1 minute. • Incubate plate for >5 minutes to stabilize luminescence. • Luminescence is stable for up to 3 hours. • Read luminescence on plate reader

[4] = A549 cells, 72 hr incubation, cell titer glo

p97, sequence (P55072 whole entry): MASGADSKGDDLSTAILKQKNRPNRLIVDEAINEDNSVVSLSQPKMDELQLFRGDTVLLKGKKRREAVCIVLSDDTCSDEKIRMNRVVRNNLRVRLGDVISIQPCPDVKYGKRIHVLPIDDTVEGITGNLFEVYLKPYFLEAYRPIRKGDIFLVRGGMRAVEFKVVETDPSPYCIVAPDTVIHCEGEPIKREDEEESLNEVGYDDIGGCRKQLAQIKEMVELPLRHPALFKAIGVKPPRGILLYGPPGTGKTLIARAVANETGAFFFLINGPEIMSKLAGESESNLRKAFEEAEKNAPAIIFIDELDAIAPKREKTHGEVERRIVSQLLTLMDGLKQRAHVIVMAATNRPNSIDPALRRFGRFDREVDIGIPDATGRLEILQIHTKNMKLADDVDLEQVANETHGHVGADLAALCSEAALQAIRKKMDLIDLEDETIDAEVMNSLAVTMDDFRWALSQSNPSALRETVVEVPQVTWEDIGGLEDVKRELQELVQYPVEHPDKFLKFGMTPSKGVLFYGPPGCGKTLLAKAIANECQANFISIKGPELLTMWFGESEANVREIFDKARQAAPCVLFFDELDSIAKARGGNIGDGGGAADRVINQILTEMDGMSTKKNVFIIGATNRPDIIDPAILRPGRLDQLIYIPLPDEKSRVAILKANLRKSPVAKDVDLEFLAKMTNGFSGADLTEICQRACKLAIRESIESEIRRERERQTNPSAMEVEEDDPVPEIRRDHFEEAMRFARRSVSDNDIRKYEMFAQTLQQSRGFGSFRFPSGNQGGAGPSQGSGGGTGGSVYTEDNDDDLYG

IC50 [1] [nM] | IC50 [2] [nM] | IC50 [3, 4] [nM] | Structure (SMILES) | IC50 ([3]; A549, 72 h) [nM]
< 1000 | < 30 | < 1000 | NC(=O)c1cccc2c1cnn2-c1nc2c(c(NCc3ccccc3)n1)CCCC2 [FF03, 1-(4-(benzylamino)-5,6,7,8-tetrahydroquinazolin-2-yl)-1H-indazole-4-carboxamide] | –
– | < 300 | – | NC(=O)c1cccc2c1cnn2-c1nc2c(c(NCc3ccccc3)n1)COCC2 [FF04, 1-(4-(benzylamino)-7,8-dihydro-5H-pyrano[4,3-d]pyrimidin-2-yl)-1H-indazole-4-carboxamide] | –
< 3000 | < 30 | < 3000 | Cc1[nH]c2c(C(N)=O)cccc2c1-c1nc2c(c(NCc3ccccc3)n1)CCCC2 [FF05, 3-(4-(benzylamino)-5,6,7,8-tetrahydroquinazolin-2-yl)-2-methyl-1H-indole-7-carboxamide] | –
< 1000 | < 30 | < 1000 | Cc1cc2c(C(N)=O)cccc2n1-c1nc(NCc2ccccc2)c2c(n1)OCCC2 [FF06, 1-(4-(benzylamino)-6,7-dihydro-5H-pyrano[2,3-d]pyrimidin-2-yl)-2-methyl-1H-indole-4-carboxamide] | –
< 1000 | < 30 | < 1000 | Cc1cc2c(C(N)=O)cccc2n1-c1nc2c(c(NCc3ccccc3)n1)CCCN2 [FF07, 1-(4-(benzylamino)-5,6,7,8-tetrahydropyrido[2,3-d]pyrimidin-2-yl)-2-methyl-1H-indole-4-carboxamide] | –
< 3000 | < 100 | < 3000 | Cc1cc2c(C(N)=O)cccc2n1-c1nc(NCc2ccccc2)c2c(n1)OCC2 [FF08, 1-(4-(benzylamino)-5,6-dihydrofuro[2,3-d]pyrimidin-2-yl)-2-methyl-1H-indole-4-carboxamide] | –
< 1000 | < 30 | < 1000 | Cc1cc2c(C(N)=O)cccc2n1-c1nc(NCc2cccc(F)c2)c2c(n1)OCCC2 [FF09, 1-(4-((3-fluorobenzyl)amino)-6,7-dihydro-5H-pyrano[2,3-d]pyrimidin-2-yl)-2-methyl-1H-indole-4-carboxamide] | –
< 3000 | < 100 | < 3000 | Cc1[nH]c2c(C(N)=O)cccc2c1-c1nc2c(c(NCc3ccccc3)n1)COCC2 [FF10, 3-(4-(benzylamino)-7,8-dihydro-5H-pyrano[4,3-d]pyrimidin-2-yl)-2-methyl-1H-indole-7-carboxamide] | –
– | < 100 | – | CN1CCCc2nc(-n3ncc4c(C(N)=O)cccc43)nc(NCc3cccc(F)c3)c21 [FF11, 1-(4-((3-fluorobenzyl)amino)-5-methyl-5,6,7,8-tetrahydropyrido[3,2-d]pyrimidin-2-yl)-1H-indazole-4-carboxamide] | –
< 1000 | < 30 | < 1000 | Cc1cc2c(C(N)=O)cccc2n1-c1nc2c(c(NCc3cccc(F)c3)n1)N(C)CCC2 [FF12, 1-(4-((3-fluorobenzyl)amino)-5-methyl-5,6,7,8-tetrahydropyrido[3,2-d]pyrimidin-2-yl)-2-methyl-1H-indole-4-carboxamide] | –
– | < 100 | – | Cc1cc2c(C(N)=O)cccc2n1-c1nc(NCc2ccccc2)c2c(n1)C(C)CN(C)C2 (stereo not drawn) [FF13, 1-(4-(benzylamino)-6,8-dimethyl-5,6,7,8-tetrahydropyrido[4,3-d]pyrimidin-2-yl)-2-methyl-1H-indole-4-carboxamide] | –
– | < 100 | < 3000 | NC(=O)c1cccc2c1cnn2-c1nc2c(c(NCc3cccc(F)c3)n1)CCCC2 [FF14, 1-(4-((3-fluorobenzyl)amino)-5,6,7,8-tetrahydroquinazolin-2-yl)-1H-indazole-4-carboxamide] | –
– | < 30 | < 10000 | NC(=O)c1cccc2c1cnn2-c1nc(NCc2cccc(F)c2)c2c(n1)OCCC2 [FF16, 1-(4-((3-fluorobenzyl)amino)-6,7-dihydro-5H-pyrano[2,3-d]pyrimidin-2-yl)-1H-indazole-4-carboxamide] | –
– | < 30 | < 1000 | NC(=O)c1cccc2c1cc(CO)n2-c1nc2c(c(NCc3ccccc3)n1)CCCN2 [FF17, 1-(4-(benzylamino)-5,6,7,8-tetrahydropyrido[2,3-d]pyrimidin-2-yl)-2-(hydroxymethyl)-1H-indole-4-carboxamide] | –
– | < 1000 | – | Cc1oc2c(C(N)=O)cccc2c1-c1nc2c(c(NCc3cccc(F)c3)n1)COCC2 [FF22, 3-(4-((3-fluorobenzyl)amino)-7,8-dihydro-5H-pyrano[4,3-d]pyrimidin-2-yl)-2-methylbenzofuran-7-carboxamide] | –
– | < 300 | – | Cc1cc2c(CN)cccc2n1-c1nc(NCc2ccccc2)c2c(n1)OCCC2 [FF31, 2-(4-(aminomethyl)-2-methyl-1H-indol-1-yl)-N-benzyl-6,7-dihydro-5H-pyrano[2,3-d]pyrimidin-4-amine] | –
– | < 1000 | – | NC(=O)c1cccc2c1cnn2-c1nc2c(c(NCc3ccccc3)n1)CNCC2 [FF33, 1-(4-(benzylamino)-5,6,7,8-tetrahydropyrido[4,3-d]pyrimidin-2-yl)-1H-indazole-4-carboxamide] | –
< 10000 | – | < 10000 | Cc1[nH]c2ccccc2c1-c1nc2c(c(NCc3ccccc3)n1)CCCC2 [FF36, N-benzyl-2-(2-methyl-1H-indol-3-yl)-5,6,7,8-tetrahydroquinazolin-4-amine] | –

Structure (SMILES) | IC50 [1] [nM] | IC50 [2] [nM] | IC50 [3, 4] [nM] | IC50 ([3]; A549, 72 h) [nM]
COc1nc2c(C(N)=O)cccc2n1-c1nc(NCc2cccc(F)c2)c2c(n1)OCCC2 [FF15, 1-(4-((3-fluorobenzyl)amino)-6,7-dihydro-5H-pyrano[2,3-d]pyrimidin-2-yl)-2-methoxy-1H-benzo[d]imidazole-4-carboxamide] | – | < 30 | – | < 3000
Cc1cc2c(C(N)=O)cccc2n1-c1nc2c(c(NCc3ccccc3)n1)CCNCC2 [FF20, 1-(4-(benzylamino)-6,7,8,9-tetrahydro-5H-pyrimido[4,5-d]azepin-2-yl)-2-methyl-1H-indole-4-carboxamide] | – | < 300 | – | < 3000
